Experimental findings from patent EP0607129B1, “METHYLPIPERAZINOAZEPINE DERIVATIVES, THEIR PREPARATION AND USE” ("THERABEL RESEARCH SA/NV", priority 1991, dated 1993) are described below.

The subject of one data set is récepteurs muscariniques. Further details: species or system rat CFY. To be noted: 1,5 nM (³H) QNB; rat brain homogenate without cerebellum; 25°C, 60 minutes; non-specific binding with atropine 10⁻⁵M; test concentration not given.
Data set [1] can be described thus: Catalepsy test (extrapyramidal side effects). It counts as in vivo. Conditions: for léger / faible effet cataleptique à partir de: dose from which a slight (léger, faible) cataleptic effect is seen; for catalepsie pour des doses supérieures à: dose above which catalepsy is seen. The source says:
Voir notamment GRAY W.D., OSTERBERG A.C., RAUH C.E., Arch. Int. Pharmacodyn. 134, 198, 1961 et COSTALL B., OLLEY J.E., Neuropharmacology 10, 297, 1971.
Ce test est représentatif des effets extrapyramidaux présents dans de nombreux neuroleptiques (effet secondaire non souhaitable). Les composés de l'invention provoquent très peu de catalepsie et paraissent donc dénués de cet effet secondaire non souhaitable.

The next data set relates to apomorphine. Briefly: In vivo apomorphine antagonism test.
[2] abbreviates: graded + to +++++, 20 mg/kg for the compounds.

With `CN1CCN(C2=Nc3ccccc3Sc3ccc(Cl)cc32)CC1` [Clothiapine, reference compound], the “Inhibition, % (binding de ³H QNB)” value in the data set on récepteurs muscariniques is on record as 38,05%. As to `CN1CCN(C2=Nc3cc(Cl)ccc3Nc3ccccc32)CC1` [Clozapine, reference compound], the “léger / faible effet cataleptique à partir de” value in data set [1] is given as not below 20 mg/kg. Besides, the “Test d'antagonisme a l'apomorphine: intensité de l'activité” value (“Test d'antagonisme a l'apomorphine” below) in the data set with apomorphine (clozapine at 20 mg/g (so in the source)) is “+”. With `CN1CCN(C2=Nc3ccccc3Nc3ccncc32)CC1` [Exemple 1, 11-(4-méthylpipérazin-1-yl)-5H-pyrido(4,3-b)benzo-1,5-diazépine], the “Inhibition, % (binding de ³H QNB)” value in the data set with récepteurs muscariniques is given as 4,48%. In addition, in data set [1], the “catalepsie pour des doses supérieures à” value was more than 40 mg/kg. In the case of `CN1CCN(C2=Nc3cccnc3Sc3ccc(Cl)cc32)CC1.O=C(O)/C=C/C(=O)O` [Exemple 3, Fumaratede 8-chloro-6-(4-méthylpipérazin-1-yl)pyrido(2,3-b)benzo-1,4-thiazépine], the “catalepsie pour des doses supérieures à” value in data set [1] is on record as more than 40 mg/kg.

Take `CN1CCN(C2=Nc3ccccc3Oc3ncccc32)CC1.O=C(O)/C=C\C(=O)O` [Exemple 4, Maléatede 5-(4-méthylpipérazin-1-yl)pyrido(2,3-b)benzo-1,5-oxazépine]: the “léger / faible effet cataleptique à partir de” value in data set [1] is on record as not below 20 mg/kg. Regarding `CN1CCN(C2=Nc3cc(Cl)ccc3Oc3ncccc32)CC1.O=C(O)/C=C/C(=O)O` [Exemple 5, Fumaratede 8-chloro-5-(4-méthylpipérazin-1-yl)pyrido(2,3-b)benzo-1,5-oxazépine], the “Test d'antagonisme a l'apomorphine” value in the data set with apomorphine (setting [2]) was “+”.

In the case of `CN1CCN(C2=Nc3cccnc3Oc3ccccc32)CC1.O=C(O)/C=C/C(=O)O` [Exemple 7, Fumaratede 6-(4-méthylpipérazin-1-yl)pyrido(2,3-b)benzo-1,4-oxazépine], in the data set on apomorphine (setting [2]), the “Test d'antagonisme a l'apomorphine” value was “+”. In the case of `CN1CCN(C2=Nc3cccnc3Nc3ccc(Cl)cc32)CC1` [Exemple 10, 8-chloro-6-(4-méthylpipérazin-1-yl)-11H-pyrido(2,3-b)benzo-1,4-diazépine], the “Inhibition, % (binding de ³H QNB)” value in the data set with récepteurs muscariniques was 62,08%. Still for that read-out and setting: then `Cc1ccc2c(c1)C(N1CCN(C)CC1)=Nc1cccnc1N2` [Exemple 11, 6-(4-méthylpipérazin-1-yl)-8-méthyl-11H-pyrido(2,3-b)benzo-1,4-diazépine], with 67,3%. Take `CN1CCN(C2=Nc3cccnc3Nc3cc(Cl)ccc32)CC1` [Exemple 12, 9-chloro-6-(4-méthylpipérazin-1-yl)-11H-pyrido(2,3-b)benzo-1,4-diazépine]: the “Test d'antagonisme a l'apomorphine” value in the data set with apomorphine (setting [2]) is “+”. Turning to `CN1CCN(C2=Nc3cccnc3Nc3ccc(F)cc32)CC1` [Exemple 13, 8-fluoro-6-(4-méthylpipérazin-1-yl)-11H-pyrido(2,3-b)benzo-1,4-diazépine], in the data set with apomorphine (setting [2]), the “Test d'antagonisme a l'apomorphine” value is “+”. Take `CN1CCN(C2=Nc3cccnc3N(C=O)c3ccccc32)CC1` [Exemple 17, 11-formyl-6-(4-méthylpipérazin-1-yl)-11H-pyrido(2,3-b)benzo-1,4-diazépine]: the “Inhibition, % (binding de ³H QNB)” value in the data set with récepteurs muscariniques is reported as 43,38%. Regarding `CN1CCN(C2=Nc3cnccc3Sc3ccccc32)CC1` [Exemple 18, 10-(4-méthylpipérazin-1-yl)pyrido(4,3-b)benzo-1,4-thiazépine], the “Inhibition, % (binding de ³H QNB)” value in the data set with récepteurs muscariniques is given as 57,61%. With `O=C(CCCN1CCC(O)(c2ccc(Cl)cc2)CC1)c1ccc(F)cc1` [Halopéridol, reference compound], the “Test d'antagonisme a l'apomorphine” value in the data set with apomorphine (halopéridol at 0,63 mg/kg) is “+++++”.
